Reference: the NIST ThermoML archive (doi:10.1021/acs.jced.5b01044)
Numbers after ± are expanded uncertainties.

Conditions: Liquid, Ebulliometric method (Recirculating still)

Cc1ccc(C)cc1 [1,4-dimethylbenzene]
vapor or sublimation pressure (411.21 K): 101.3 ± 0.5 kPa

CC(C)(CO)CO [2,2-dimethyl-1,3-propanediol]
vapor or sublimation pressure (478.95 K): 101.3 ± 0.5 kPa

OCCO [1,2-ethanediol]
vapor or sublimation pressure (470.22 K): 101.3 ± 0.5 kPa
